Measurements reported in patent US20190185417A1, “NOVEL ANTIBIOTICS” (priority 2016, published 2019).

Key:
Assay type in all cases: cell-based
[1] = system: Haemophilus influenzae (ATCC 49247); test: MIC by broth microdilution; details: Table 2, Example 2
Method: (§1) The antibacterial potency of the test article(s) was measured using the in vitro broth microdilution assay under assay conditions described by the Clinical and Laboratory Standards Institute. […] The test substance was dissolved in 100% DMSO (unless stated below), suspended completely by sonication or vortexing, diluted by 2-fold serial titrations in the same vehicle, for a total of 11 test concentrations. A 4 μL aliquot of each dilution was added to 196 μL of broth medium seeded with the organism suspension in wells of a 96 well plate (bacterial count: 2−8×10^5 colony forming units/mL final). The final volume was 200 μL in each well and the final DMSO concentration was 2 percent. Following incubation, the test plates were visually examined and wells were scored for growth or complete growth inhibition to define the minimum inhibitory concentration. Each test substance was evaluated in duplicate and the results below are the duplicate test values. Vehicle-control and an active reference agent were used as blank and positive controls, respectively.

[2] = system: Klebsiella pneumoniae (ATCC 43816); test: MIC by broth microdilution; details: Table 2, Example 2
Method: as §1, with “DMSO,” for “DMSO (unless stated below),”, “incubation for 1 day at 36° C.,” for “incubation,”, “were reported as” for “below are”, “respectively. Microorganisms tested were Acinetobacter baumannii (ATCC 17978), Enterococcus faecalis (ATCC 29212), Enterococcus faecium VanA (ATCC 700221), Escherichia coli (ATCC 25922), Escherichia coli efflux defective DEL-tolC (JW5503), Heamophilus influenzae (ATCC 49247), Klebsiella pneumoniae (ATCC 43816), Pseudomonas aeruginosa (ATCC 27853), Pseudomonas aeruginosa MDR (NTUH-974), Staphylococcus aureus (ATCC 29213), Staphylococcus aureus MRSA (ATCC 33591) and Streptococcous pneumoniae (ATCC 46919). H. influenzae was grown in Haemophilus Test Medium and S. pneumoniae was grown in cation adjusted Muller-Hinton Broth II with 5% lysed horse blood. All other microorganisms were grown in cation adjusted Muller-Hinton Broth II.” for “respectively.”
as §1

[3] = system: Pseudomonas aeruginosa (ATCC 27853); test: MIC by broth microdilution; details: Table 2, Example 2
Method: as §1, with “DMSO,” for “DMSO (unless stated below),”, “incubation for 1 day at 36° C.,” for “incubation,”, “were reported as” for “below are”, “respectively. Microorganisms tested were Acinetobacter baumannii (ATCC 17978), Enterococcus faecalis (ATCC 29212), Enterococcus faecium VanA (ATCC 700221), Escherichia coli (ATCC 25922), Escherichia coli efflux defective DEL-tolC (JW5503), Heamophilus influenzae (ATCC 49247), Klebsiella pneumoniae (ATCC 43816), Pseudomonas aeruginosa (ATCC 27853), Pseudomonas aeruginosa MDR (NTUH-974), Staphylococcus aureus (ATCC 29213), Staphylococcus aureus MRSA (ATCC 33591) and Streptococcous pneumoniae (ATCC 46919). H. influenzae was grown in Haemophilus Test Medium and S. pneumoniae was grown in cation adjusted Muller-Hinton Broth II with 5% lysed horse blood. All other microorganisms were grown in cation adjusted Muller-Hinton Broth II.” for “respectively.”
as §1

[4] = system: Escherichia coli (ATCC 25922); test: MIC by broth microdilution; details: Table 2, Example 2
Method: as §1, with “DMSO,” for “DMSO (unless stated below),”, “incubation for 1 day at 36° C.,” for “incubation,”, “were reported as” for “below are”, “respectively. Microorganisms tested were Acinetobacter baumannii (ATCC 17978), Enterococcus faecalis (ATCC 29212), Enterococcus faecium VanA (ATCC 700221), Escherichia coli (ATCC 25922), Escherichia coli efflux defective DEL-tolC (JW5503), Heamophilus influenzae (ATCC 49247), Klebsiella pneumoniae (ATCC 43816), Pseudomonas aeruginosa (ATCC 27853), Pseudomonas aeruginosa MDR (NTUH-974), Staphylococcus aureus (ATCC 29213), Staphylococcus aureus MRSA (ATCC 33591) and Streptococcous pneumoniae (ATCC 46919). H. influenzae was grown in Haemophilus Test Medium and S. pneumoniae was grown in cation adjusted Muller-Hinton Broth II with 5% lysed horse blood. All other microorganisms were grown in cation adjusted Muller-Hinton Broth II.” for “respectively.”
as §1

[5] = system: Acinetobacter baumannii (ATCC 17978); test: MIC by broth microdilution; details: Table 2, Example 2
Method: as §1, with “DMSO,” for “DMSO (unless stated below),”, “incubation for 1 day at 36° C.,” for “incubation,”, “were reported as” for “below are”, “respectively. Microorganisms tested were Acinetobacter baumannii (ATCC 17978), Enterococcus faecalis (ATCC 29212), Enterococcus faecium VanA (ATCC 700221), Escherichia coli (ATCC 25922), Escherichia coli efflux defective DEL-tolC (JW5503), Heamophilus influenzae (ATCC 49247), Klebsiella pneumoniae (ATCC 43816), Pseudomonas aeruginosa (ATCC 27853), Pseudomonas aeruginosa MDR (NTUH-974), Staphylococcus aureus (ATCC 29213), Staphylococcus aureus MRSA (ATCC 33591) and Streptococcous pneumoniae (ATCC 46919). H. influenzae was grown in Haemophilus Test Medium and S. pneumoniae was grown in cation adjusted Muller-Hinton Broth II with 5% lysed horse blood. All other microorganisms were grown in cation adjusted Muller-Hinton Broth II.” for “respectively.”
as §1

[6] = system: Escherichia coli, efflux defective DEL-tolC (JW5503); test: MIC by broth microdilution; details: Table 2, Example 2
Method: as §1, with “DMSO,” for “DMSO (unless stated below),”, “incubation for 1 day at 36° C.,” for “incubation,”, “were reported as” for “below are”, “respectively. Microorganisms tested were Acinetobacter baumannii (ATCC 17978), Enterococcus faecalis (ATCC 29212), Enterococcus faecium VanA (ATCC 700221), Escherichia coli (ATCC 25922), Escherichia coli efflux defective DEL-tolC (JW5503), Heamophilus influenzae (ATCC 49247), Klebsiella pneumoniae (ATCC 43816), Pseudomonas aeruginosa (ATCC 27853), Pseudomonas aeruginosa MDR (NTUH-974), Staphylococcus aureus (ATCC 29213), Staphylococcus aureus MRSA (ATCC 33591) and Streptococcous pneumoniae (ATCC 46919). H. influenzae was grown in Haemophilus Test Medium and S. pneumoniae was grown in cation adjusted Muller-Hinton Broth II with 5% lysed horse blood. All other microorganisms were grown in cation adjusted Muller-Hinton Broth II.” for “respectively.”
as §1

[7] = system: Pseudomonas aeruginosa, MDR (NTUH-974); test: MIC by broth microdilution; details: Table 2, Example 2
Method: as §1, with “DMSO,” for “DMSO (unless stated below),”, “incubation for 1 day at 36° C.,” for “incubation,”, “were reported as” for “below are”, “respectively. Microorganisms tested were Acinetobacter baumannii (ATCC 17978), Enterococcus faecalis (ATCC 29212), Enterococcus faecium VanA (ATCC 700221), Escherichia coli (ATCC 25922), Escherichia coli efflux defective DEL-tolC (JW5503), Heamophilus influenzae (ATCC 49247), Klebsiella pneumoniae (ATCC 43816), Pseudomonas aeruginosa (ATCC 27853), Pseudomonas aeruginosa MDR (NTUH-974), Staphylococcus aureus (ATCC 29213), Staphylococcus aureus MRSA (ATCC 33591) and Streptococcous pneumoniae (ATCC 46919). H. influenzae was grown in Haemophilus Test Medium and S. pneumoniae was grown in cation adjusted Muller-Hinton Broth II with 5% lysed horse blood. All other microorganisms were grown in cation adjusted Muller-Hinton Broth II.” for “respectively.”
as §1

Gram-negative bacteria = test: MIC by broth microdilution, overall statement in words; details: Example 2, statement in words
Method: as §1, with “DMSO,” for “DMSO (unless stated below),”, “incubation for 1 day at 36° C.,” for “incubation,”, “were reported as” for “below are”, “respectively. Microorganisms tested were Acinetobacter baumannii (ATCC 17978), Enterococcus faecalis (ATCC 29212), Enterococcus faecium VanA (ATCC 700221), Escherichia coli (ATCC 25922), Escherichia coli efflux defective DEL-tolC (JW5503), Heamophilus influenzae (ATCC 49247), Klebsiella pneumoniae (ATCC 43816), Pseudomonas aeruginosa (ATCC 27853), Pseudomonas aeruginosa MDR (NTUH-974), Staphylococcus aureus (ATCC 29213), Staphylococcus aureus MRSA (ATCC 33591) and Streptococcous pneumoniae (ATCC 46919). H. influenzae was grown in Haemophilus Test Medium and S. pneumoniae was grown in cation adjusted Muller-Hinton Broth II with 5% lysed horse blood. All other microorganisms were grown in cation adjusted Muller-Hinton Broth II.” for “respectively.”
as §1

Structure (SMILES)	MIC [1] [µg/mL]	MIC [2] [µg/mL]	MIC [3] [µg/mL]	MIC [4] [µg/mL]	MIC [5] [µg/mL]	MIC [6] [µg/mL]	MIC [7] [µg/mL]	effectiveness against the bacteria of Table 2 (Gram-negative bacteria)
O=[N+]([O-])c1ccc(CCc2cc(CCc3ccc([N+](=O)[O-])cc3)cc(CCc3ccc([N+](=O)[O-])cc3)c2)cc1 [Compound 8 (TSB036)]	>32.0	>32.0	>32.0	>32.0	>32.0	>32.0	>32.0	–
CC(=O)ONc1ccc(CCc2cc(CCc3ccc(NOC(C)=O)cc3)cc(CCc3ccc(NOC(C)=O)cc3)c2)cc1 [Compound 9 (TSB016)]	>32.0	>32.0	>32.0	>32.0	>32.0	>32.0	>32.0	–
CN(C)c1ccc(/C=C/c2cc(/C=C/c3ccc(N(C)C)cc3)cc(/C=C/c3ccc(N(C)C)cc3)c2)cc1 [Compound 10]	>128	>128	>128	>128	>128	>128	>128	–
CN(C)c1ccc(CCc2cc(CCc3ccc(N(C)C)cc3)cc(CCc3ccc(N(C)C)cc3)c2)cc1 [Compound 11 (TSB010)]	>32.0	>32.0	>32.0	>32.0	>32.0	>32.0	>32.0	–
CN(C)Cc1ccc(/C=C/c2cc(/C=C/c3ccc(CC(N)=O)cc3)cc(/C=C/c3ccc(CC(=O)O)cc3)c2)cc1 [Compound 14]	>128	>128	>128	>128	>128	>128	>128	ineffective
CN(C)Cc1ccc(/C=C/c2cc(/C=C/c3ccc(CC(N)=O)cc3)cc(/C=C/c3ccc(CC(N)=O)cc3)c2)cc1 [Compound 15]	>128	>128	>128	>128	>128	>128	>128	ineffective
CN(C)Cc1ccc(/C=C/c2cc(/C=C/c3ccc(CC(=O)O)cc3)cc(/C=C/c3ccc(CC(=O)O)cc3)c2)cc1 [Compound 16]	>128	>128	>128	>128	>128	>128	>128	ineffective
NC(=O)Cc1ccc(/C=C/c2cc(/C=C/c3ccc(CC(N)=O)cc3)cc(/C=C/c3ccc(CC(N)=O)cc3)c2)cc1 [Compound 17]	>128	>128	>128	>128	>128	>128	>128	–
